Read-outs that look alike come from different tables or passages of the source.
Tests used:
[1] = Osmolality of aqueous solution at 300 mg I/ml; assay type: physicochemical; settings: for OSMOLALITY mOsm/kg at 300 mg I/ml: 300 mg I/ml (Table II); for OSMOLALITY 37°C mOsm/kg at 300 mg I/ml: 300 mg I/ml (Table I)
[2] = Viscosity of aqueous solution at 300 mg I/ml; assay type: physicochemical; settings: for VISCOSITY mPas (37°C) at 300 mg I/ml: 300 mg I/ml (Table II); for VISCOSITY 37°C mPa.s 300 mg I/ml: 300 mg I/ml (Table I)
physchem = assay type: physicochemical; settings: for solubility: water
Experimental: (§1) On the other hand, radiologists need compounds with a wide range of uses: for example, angiography, urography, myelography, cisternography, lymphography, cardiography and gastrography. The products according to this invention fulfil the requirements for the above uses, as they have high water solubility, normally higher than 60% (w/v), which, in some cases, is as high as 100% at 20°C, without showing any tendency to crystallize. They also have a very low general toxicity, stated as the average lethal dose for the rat, DL₅₀.

RAT = test: General toxicity, average lethal dose (DL50) in the rat, i.v.; assay type: in vivo
Experimental: as §1

[3] = 20°C (Table II), read-out: SOLUBILITY IN WATER at 20°

Row | SMILES | OSMOLALITY mOsm/kg at 300 mg I/ml [1] [mOsm/kg] | VISCOSITY mPas (37°C) at 300 mg I/ml [2] [mPas] | solubility (physchem; [3]) [mg/mL] | also measured
1 | O=C(CN(CC(=O)Nc1c(I)c(C(=O)NCC(O)CO)c(I)c(C(=O)NCC(O)CO)c1I)CC(O)CO)Nc1c(I)c(C(=O)NCC(O)CO)c(I)c(C(=O)NCC(O)CO)c1I (stereo not drawn) [ICJ-1092, N,N'-Bis-{3,5-bis-[N-(2,3-dihydroxypropyl)carbamoyl]-2,4,6-triiodophenyl}-3-(2,3-dihydroxypropyl)-3-azapentanediamide] | 193 | 10.3 | > 600 | –
2 | O=C(CN(CCO)CC(=O)Nc1c(I)c(C(=O)NCC(O)CO)c(I)c(C(=O)NCC(O)CO)c1I)Nc1c(I)c(C(=O)NCC(O)CO)c(I)c(C(=O)NCC(O)CO)c1I (stereo not drawn) [ICJ-1192, N,N'-Bis-{3,5-bis-[N-(2,3-dihydroxypropyl)carbamoyl]-2,4,6-triiodophenyl}-3-(2-hydroxyethyl)-3-azapentanediamide] | 167 | 9.4 | – | OSMOLALITY 37°C mOsm/kg at 300 mg I/ml [1]: 167 mOsm/kg; VISCOSITY 37°C mPa.s 300 mg I/ml [2]: 9.4 mPa.s; DL50 (RAT) via i.v. g I/kg (RAT): > 25 g I/kg; SOLUBILITY IN WATER at 20° (physchem; 20°C (Table II)): > 60%; solubility (physchem; 20°C (Table I), read-out: SOLUBILITY in water at 20°C (w/v)): > 600 mg/mL
3 | O=C(CN(CCO)CC(=O)Nc1c(I)c(C(=O)NCC(O)CO)c(I)c(C(=O)NCC(O)CO)c1I)Nc1c(I)c(C(=O)NCCO)c(I)c(C(=O)NCCO)c1I (stereo not drawn) [ICJ-1292, N-{3,5-Bis-[N-(2,3-dihydroxypropyl)carbamoyl]-2,4,6-triiodophenyl}-N'-{3,5-bis-[N-(2-hydroxyethyl)carbamoyl]-2,4,6-triiodophenyl}-3-(2-hydroxyethyl)-3-azapentanediamide] | – | – | < 600 | –
4 | O=C(CN(CCO)CC(=O)Nc1c(I)c(C(=O)NCCO)c(I)c(C(=O)NCCO)c1I)Nc1c(I)c(C(=O)NCCO)c(I)c(C(=O)NCCO)c1I [ICJ-1392, N,N'-Bis-{3,5-bis-[N-(2-hydroxyethyl)carbamoyl]-2,4,6-triiodophenyl}-3-(2-hydroxyethyl)-3-azapentanedimide] | – | – | < 600 | –
5 | O=C(CN(CC(=O)Nc1c(I)c(C(=O)NCC(O)CO)c(I)c(C(=O)NCC(O)CO)c1I)CC(O)CO)Nc1c(I)c(C(=O)NCCO)c(I)c(C(=O)NCCO)c1I (stereo not drawn) [ICJ-1492, N-{3,5-bis-[N-(2,3-dihydroxypropyl)carbamoyl]-2,4,6-triiodophenyl}-N'-{3,5-bis-[N-(2-hydroxyethyl)carbamoyl]-2,4,6-triiodophenyl)-3-(2,3-dihydroxypropyl)-3-azapentanediamide] | 137 | 9.5 | < 600 | –
6 | O=C(CN(CCO)CC(=O)Nc1c(I)c(C(=O)NC(CO)C(O)CO)c(I)c(C(=O)NC(CO)C(O)CO)c1I)Nc1c(I)c(C(=O)NCCO)c(I)c(C(=O)NCCO)c1I (stereo not drawn) [ICJ-1592] | 151 | 8.4 | – | OSMOLALITY 37°C mOsm/kg at 300 mg I/ml [1]: 151 mOsm/kg; VISCOSITY 37°C mPa.s 300 mg I/ml [2]: 8.4 mPa.s; DL50 (RAT) via i.v. g I/kg (RAT): > 20 g I/kg; SOLUBILITY IN WATER at 20° (physchem): > 60%; solubility (physchem): > 600 mg/mL
7 | CN(C(=O)CN(CCO)CC(=O)Nc1c(I)c(C(=O)NCC(O)CO)c(I)c(C(=O)NCC(O)CO)c1I)c1c(I)c(C(=O)NCC(O)CO)c(I)c(C(=O)NCC(O)CO)c1I (stereo not drawn) [ICJ-1792, N,N'-Bis-{3,5-bis-[N-(2,3-dihydroxypropyl)carbamoyl]-2,4,6-triiodophenyl}-N-methyl-3-(2-hydroxyethyl)-3-azapentanediamide] | 157 | 10.6 | > 600 | –
8 | CN(C(=O)CN(CCO)CC(=O)Nc1c(I)c(C(=O)NCCO)c(I)c(C(=O)NCCO)c1I)c1c(I)c(C(=O)NC(CO)C(O)CO)c(I)c(C(=O)NC(CO)C(O)CO)c1I (stereo not drawn) [ICJ-1892, N{3,5-Bis-[N-(1-hydroxymethyl-2,3-dihydroxypropyl)carbamoyl]-2,4,6-triiodophenyl}-N-methyl-N'-{3,5-bis-[N-(2-hydroxyethyl)carbamoyl]-2,4,6-triiodophenyl}-3-(2-hydroxyethyl)-3-azapentanediamide] | 133 | 9.7 | > 600 | –
9 | CN(C(=O)CN(CCO)CC(=O)Nc1c(I)c(C(=O)NC(CO)C(O)CO)c(I)c(C(=O)NC(CO)C(O)CO)c1I)c1c(I)c(C(=O)NCCO)c(I)c(C(=O)NCCO)c1I (stereo not drawn) [ICJ-1992, N-{3,5-Bis-[N-(1-hydroxymethyl-2,3-dihydroxypropyl)carbamoyl]-2,4,6-triiodophenyl}-N'-methyl-N'-{3,5-bis-[N-(2-hydroxyethyl)carbamoyl]-2,4,6-triiodophenyl}-3-(2-hydroxyethyl)-3-azapentanediamide] | 164 | 9.1 | > 600 | –
10 | CN(C(=O)CN(CCO)CC(=O)N(C)c1c(I)c(C(=O)NC(CO)C(O)CO)c(I)c(C(=O)NC(CO)C(O)CO)c1I)c1c(I)c(C(=O)NCCO)c(I)c(C(=O)NCCO)c1I (stereo not drawn) [ICJ-2092, N-{3,5-Bis-[N-(1-hydroxymethyl-2,3-dihydroxypropyl)carbamoyl]-2,4,6-triiodophenyl}-N'-{3,5-bis-[N-(2-hydroxyethyl)carbamoyl]-2,4,6-triiodophenyl}-N,N'-dimethyl-3-(2-hydroxyethyl)-3-azapentanediamide] | 188 | 9.5 | > 600 | –
11 | CN(C(=O)CN(CCO)CC(=O)Nc1c(I)c(C(=O)NCC(O)CO)c(I)c(C(=O)NCC(O)CO)c1I)c1c(I)c(C(=O)NCCO)c(I)c(C(=O)NCCO)c1I (stereo not drawn) [ICJ-2192, N-{3,5-Bis-[N-(2,3-dihydroxpropyl)carbamoyl]-2,4,6-triiodophenyl}-N'-methyl-N'-{3,5-bis-[N-(2-hydroxyethyl)carbamoyl]-2,4,6-triiodophenyl}-3-(2-hydroxyethyl)-3-azapentanediamide] | – | – | < 600 | –
12 | CN(C(=O)CN(CCO)CC(=O)N(C)c1c(I)c(C(=O)NCC(O)CO)c(I)c(C(=O)NCC(O)CO)c1I)c1c(I)c(C(=O)NCCO)c(I)c(C(=O)NCCO)c1I (stereo not drawn) [ICJ-2292, N-{3,5-Bis-[N-(2,3-dihydroxypropyl)carbamoyl]-2,4,6-triiodophenyl}-N'-{3,5-bis-[N-(2-hydroxyethyl)carbamoyl]-2,4,6-triiodophenyl}-N,N'-dimethyl-3-(2-hydroxyethyl)-3-azapentanediamide] | 162 | 11.0 | > 600 | –
13 | CN(C(=O)CN(CCO)CC(=O)N(C)c1c(I)c(C(=O)NCCO)c(I)c(C(=O)NCCO)c1I)c1c(I)c(C(=O)NCCO)c(I)c(C(=O)NCCO)c1I [ICJ-2392, N,N'-Bis-{3,5-bis-[N-(2-hydroxethyl)carbamoyl]-2,4,6-triiodophenyl}-N,N'-dimethyl-3-(2-hydroxyethyl)-3-azapentanedimide] | – | – | < 600 | –
14 | CN(C(=O)CN(CCO)CC(=O)Nc1c(I)c(C(=O)NCCO)c(I)c(C(=O)NCCO)c1I)c1c(I)c(C(=O)NCC(O)CO)c(I)c(C(=O)NCC(O)CO)c1I (stereo not drawn) [ICJ-2492, N-{3,5-Bis-[N-(2,3-dihydroxpropyl)carbamoyl]-2,4,6-triiodophenyl}-N-methyl-N'-{3,5-bis-[N-(2-hydroxyethyl)carbamoyl]-2,4,6-triiodophenyl}-3-(2-hydroxyethyl)-3-azapentanediamide] | – | – | < 600 | –
15 | O=C(CN(CC(=O)Nc1c(I)c(C(=O)NCCO)c(I)c(C(=O)NCCO)c1I)C(CO)C(O)CO)Nc1c(I)c(C(=O)NCCO)c(I)c(C(=O)NCCO)c1I (stereo not drawn) [ICJ-2592, N,N'-Bis-{3,5-bis-[N-(2-hydroxyethyl)carbamoyl]-2,4,6-triiodophenyl}-3-(1-hydroxymethyl-2,3-dihydroxypropyl)-3-azapentanediamide] | 180 | 9.1 | > 600 | –
16 | COCCN(CC(=O)Nc1c(I)c(C(=O)NCC(O)CO)c(I)c(C(=O)NCC(O)CO)c1I)CC(=O)Nc1c(I)c(C(=O)NCC(O)CO)c(I)c(C(=O)NCC(O)CO)c1I (stereo not drawn) [ICJ-2692, N,N'-Bis-{3,5-bis-[N-(2,3-dihydroxypropyl)carbamoyl]-2,4,6-triiodophenyl}-3-(2-methoxyethyl)-3-azapentanediamide] | 185 | 9.7 | > 600 | –
17 | CN(CC(=O)Nc1c(I)c(C(=O)NCC(O)CO)c(I)c(C(=O)NCC(O)CO)c1I)CC(=O)Nc1c(I)c(C(=O)NCC(O)CO)c(I)c(C(=O)NCC(O)CO)c1I (stereo not drawn) [ICJ-2792, N,N'-Bis-{3,5-bis-[N-(2,3-dihydroxypropyl)carbamoyl]-2,4,6-triiodophenyl}-3-methyl-3-azapentanediamide] | – | – | < 600 | –
18 | COCCN(CC(=O)N(C)c1c(I)c(C(=O)NCC(O)CO)c(I)c(C(=O)NCC(O)CO)c1I)CC(=O)N(C)c1c(I)c(C(=O)NCC(O)CO)c(I)c(C(=O)NCC(O)CO)c1I (stereo not drawn) [ICJ-2892, N,N'-Bis-{3,5-bis-[N-(2,3-dihydroxypropyl)carbamoyl]-2,4,6-triiodophenyl}-N,N'-dimethyl-3-(2-methoxymethyl)-3-azapentanediamide] | 200 | 10.8 | > 600 | –
19 | CN(CC(=O)N(C)c1c(I)c(C(=O)NCC(O)CO)c(I)c(C(=O)NCC(O)CO)c1I)CC(=O)N(C)c1c(I)c(C(=O)NCC(O)CO)c(I)c(C(=O)NCC(O)CO)c1I (stereo not drawn) [ICJ-2992, N,N'-Bis-{3,5-bis-[N-(2,3-dihydroxypropyl)carbamoyl]-2,4,6-triiodophenyl}-N,N'-dimethyl-3-methyl-3-azapentanediamide] | – | – | > 600 | –

From EP0647618A1, “NEW NON IONIC IODINE-CONTAINING DIMERS USEFUL AS X-RAY CONTRAST AGENTS, METHOD FOR THE PREPARATION THEREOF, AND GALENICAL COMPOSITIONS CONTAINING THEM” (CENTRO INVESTIGACION JUSTESA IMAGEN S.A., priority 1993, dated 1994)
